Two compounds from patent publication US10350256B2, “Compositions for the treatment of dermatological conditions, disorders or diseases” (Veit Hoermann Gesellschaft Für Unternehmenskommunikation mbH, priority 2012, dated 2019) can be followed below.

Type in all cases: in vivo, human
One test concerns psoriasis vulgaris. Briefly: Case reports, treatment of psoriasis vulgaris. To be noted: Patient H, inpatient treatment. From the text:
A patient suffering from psoriasis vulgaris affecting the whole body started a continuous treatment with black cumin oil for six months after several failed therapies with e.g. Daivobet gel.
A patient suffering from suberythrodermic psoriasis vulgaris with iridocyclitis for 13 years received inpatient treatment to intensify therapy after exacerbation for two weeks and severe itching.
Hyperkeratotic plaques were found between the fingers, discreet macerations between the toes, well defined, deeply red foci at the rima ani, and discreet redness at the penis. The psoriasis area and severity index (PASI) at admission was 36.
During inpatient treatment a therapy with fumaric acid was started; the patient further received Ceterizin and Atarax. […] Local treatments included treatment with dithranol vaseline and kopflanette. Further, the whole integument received baths with soft soap and Balneum-Hermal F. The capillitium received Silix washing oil and betamethasone.
The patient further used Curatoderm emulsion for the face. Intertrigines were treated with Candiohermal and Psorcutan ointment. The PASI at discharge was 14.7.
The further medication after discharge from the hospital included fumaric acid, Loratadin, Psorcutan ointment, urea-containing ointment, and Curatoderm emulsions. […]

A further test concerns psoriasis arthritis. As to the kind of experiment: Case report, topical treatment of psoriasis arthritis. The note with it: Patient D. From the text: (§1) Various patients have been treated topically with one of the compositions of Example 1 (Recipe N) and Example 2 (Recipe P). These patients were therapy-refractory, i.e. the patients had already been treated with standard therapies to no avail. […] Since the patients had been suffering from their respective diseases for a long time, the treatment with the compositions of the present invention seems to be effective in all stages of the diseases.
A patient suffering from psoriasis arthritis for more than 12 years received a treatment of the entire body with the composition of Example 2 (Recipe P). The composition was used regularly over two months in an amount of 150 g per day. The patient had already undergone several failed standard treatments, including cortisone treatment.

A further test has as its system atopic eczema. Briefly: Case reports, topical treatment of atopic eczema. The note with it: Patient B, earlier conventional therapies.
Excerpt: as §1
A patient suffering from atopic eczema for all their life received a continuous treatment of the affected body parts (elbows, neck, face, legs) over one month with the composition of Example 1 (Recipe N) in an amount of 1 to 10 grams in two treatments per day.
A patient suffering from atopic eczema for more than 20 years received a treatment of the affected body parts (elbows, neck, face) with the composition of Example 1 (Recipe N) for two weeks in an amount of 3 grams in two treatments per day. […] The patient stated that they had never felt so good in 20 years.
A patient suffering from atopic eczema from early childhood on, including dryness and severe itching of the affected areas of the skin, received treatment with olive oil two times a week for two months. […] Accordingly, the treatment was discontinued.
A patient suffering from atopic eczema since birth received a continuous treatment with black cumin oil for two days.

Each structure is given as a SMILES string.

On to `O=C(O)COCCN1CCN(C(c2ccccc2)c2ccc(Cl)cc2)CC1` (stereo not drawn) [Ceterizin], for which the itching under treatment entry in the test with psoriasis vulgaris is reported as “Itching remained”. As to `C[C@]12CCC(=O)C=C1CC[C@@H]1[C@@H]2C(=O)C[C@@]2(C)[C@H]1CC[C@]2(O)C(=O)CO` [cortisone], the “outcome of earlier standard treatments” value in the test on psoriasis arthritis is “failed”. Moreover, the “outcome of earlier conventional therapy” value with atopic eczema is reported as “without any success”.
